# Experimental data taken from patent US9695195B2, “5-HT3 receptor antagonists” (Takeda Pharmaceutical Company Limited, priority 2012, dated 2017).
# Structures can show the parent of a compound that is named as a salt.
# Target: 5HT3a receptor (Homo sapiens (Human), UniProt P46098)
# Test: Inhibition of Ca flux activity of 5HT3 in vitro assay
# Type: cell-based
# Details: 5HT3a expressed in HEK-293T cells; 5HT 216 nM; approximate values
# Method: The 5HT3 antagonist activity of the compounds of the invention was determined by measuring the ability of the compounds to inhibit the calcium flux activity of […] receptor expressed in HEK-293T cells. HEK-293T cells were transfected with the 5HT3a expression construct using Xtreme Gene 9 (Roche) in 150 mm tissue culture treated plates and incubated for 24 hours at 37° C. Cells were then split and plated at a density of 60K cells/well in poly-lysine coated, black 96-well plates with clear bottoms (BD BioSciences) and incubated overnight at 37° C. Growth media was removed and cells loaded with 200 uL calcium indicator dye in HBSS containing 20 mM HEPES (Calcium 5 Assay kit, Molecular Devices) and incubated at 37° C. for 1 hour. While cells were incubating, the 10× antagonist and agonist/antagonist addition plates were made. For 10× antagonist plate: half log serial dilutions (final concentrations range from 10^−7 through 10^−10 with the bottom well a negative, no ligand control) were made from test compounds in DMSO at a 1000× concentration and then diluted to 10× in HBSS/20 mM HEPES. For addition plate: 5HT was diluted to 100× in HBSS/20 mM HEPES (final concentration in the assay-216 nM) and 15 uL was added to each well of the addition plate, 15 uL of 10× compound was also added to the addition plate, and finally 120 uL of HBSS/20 mM HEPES (for a total of 150 uL). Cells were then removed from the incubator and equilibrated to room temperature for 10 minutes, then 22.5 uL of 10× test compounds were added in triplicate to the plates and incubated at room temperature for 10 minutes (Tropisetron was used as a positive control in every assay). Test plate and addition plate were loaded into the FlexStation III (Molecular Devices), and using the fluidics, 22.5 uL compound additions were made (at t=˜17 seconds), and fluorescence was measured for 90 seconds, reading every 2.2 seconds. Data sets were analyzed as max minus min using Software Max Pro (Molecular Devices). IC50 curves were generated using non-linear regression in GraphPad Prism.
# Sequence of 5HT3a receptor (P46098 24-478): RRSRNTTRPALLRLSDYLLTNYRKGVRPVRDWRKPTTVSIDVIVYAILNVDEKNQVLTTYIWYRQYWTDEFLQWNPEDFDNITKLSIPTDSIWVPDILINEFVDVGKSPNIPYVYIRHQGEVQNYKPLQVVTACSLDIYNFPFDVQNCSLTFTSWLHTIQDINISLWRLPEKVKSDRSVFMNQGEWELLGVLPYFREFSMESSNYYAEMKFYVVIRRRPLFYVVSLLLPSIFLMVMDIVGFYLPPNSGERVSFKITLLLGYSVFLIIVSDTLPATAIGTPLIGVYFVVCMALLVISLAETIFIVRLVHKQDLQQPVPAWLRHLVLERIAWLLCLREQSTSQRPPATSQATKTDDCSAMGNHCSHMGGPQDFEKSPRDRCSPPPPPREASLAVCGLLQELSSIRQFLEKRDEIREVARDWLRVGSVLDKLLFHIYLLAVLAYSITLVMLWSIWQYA
row,SMILES,IC50 [nM]
1,"CN1[C@@H]2CC[C@H]1CC(OC(=O)c1cn(CC(F)(F)F)c3ccc(F)cc13)C2 (stereo partly drawn) [Compound 1, (1R,3R,5S)-8-methyl-8-aza-bicyclo[3.2.1]octan-3-yl 5-fluoro-1-(2,2,2-trifluoro-ethyl)-1H-indole-3-carboxylate; 2,2,2-trifluoroacetate]",2.13
2,"CN1[C@@H]2CC[C@H]1CC(OC(=O)c1cn(S(C)(=O)=O)c3ccccc13)C2 (stereo partly drawn) [Compound 26, (1R,3R,5S)-8-methyl-8-aza-bicyclo[3.2.1]octan-3-yl 1-(methylsulfonyl)-1H-indole-3-carboxylate, 2,2,2-trifluoro-acetate]",0.54
3,"CN1[C@@H]2COC[C@H]1CC(OC(=O)c1cn(-c3cnccn3)c3ccccc13)C2 (stereo partly drawn) [Compound 181, (1R,5S,7S)-9-methyl-3-oxa-9-azabicyclo[3.3.1]nonan-7-yl 1-(pyrazin-2-yl)-1H-indole-3-carboxylate]",1.1
4,"CN1[C@@H]2COC[C@H]1CC(OC(=O)c1cn(-c3cncnc3)c3ccccc13)C2 (stereo partly drawn) [Compound 189, (1R,5S,7S)-9-methyl-3-oxa-9-azabicyclo[3.3.1]nonan-7-yl 1-(pyrimidin-5-yl)-1H-indole-3-carboxylate]",0.46
5,"CN1[C@@H]2COC[C@H]1CC(OC(=O)c1cn(-c3cnc(F)cn3)c3ccccc13)C2 (stereo partly drawn) [Compound 184, (1R,5S,7S)-9-methyl-3-oxa-9-aza-bicyclo[3.3.1]nonan-7-yl 1-(5-fluoropyrazin-2-yl)-1H-indole-3-carboxylate]",1.25
6,"CN1[C@@H]2CCC[C@H]1CC(OC(=O)c1nn(CCF)c3ccccc13)C2 (stereo partly drawn) [Compound 16, (1R,3R,5S)-9-methyl-9-aza-bicyclo[3.3.1]nonan-3-yl 1-(2-fluoroethyl)-1H-indazole-3-carboxylate, 2,2,2-trifluoro-acetate; 2,2,2-trifluoroacetate]",3.25
7,"CN1[C@@H]2COC[C@H]1C[C@@H](OC(=O)c1cn(-c3ccc(F)nn3)c3ccccc13)C2 [Compound 137, (1R,5S,7s)-9-methyl-3-oxa-9-azabicyclo[3.3.1]nonan-7-yl 1-(6-fluoropyridazin-3-yl)-1H-indole-3-carboxylate]",0.681
8,"CN1[C@@H]2COC[C@H]1CC(OC(=O)c1cn(-c3ncccn3)c3ccccc13)C2 (stereo partly drawn) [Compound 188, (1R,5S,7S)-9-methyl-3-oxa-9-azabicyclo[3.3.1]nonan-7-yl 1-(pyrimidin-2-yl)-1H-indole-3-carboxylate]",1.75
9,"CN1[C@@H]2CCC[C@H]1CC(OC(=O)c1c(Cl)n(CCF)c3ccccc13)C2 (stereo partly drawn) [Compound 30, (1R,3R,5S)-9-methyl-9-aza-bicyclo[3.3.1]nonan-3-yl 2-chloro-1-(2-fluoroethyl)-1H-indole-3-carboxylate, 2,2,2-trifluoroacetate]",0.2
10,"CN1[C@@H]2CC[C@H]1C[C@@H](OC(=O)c1c(Cl)n(S(C)(=O)=O)c3ccccc13)C2 [Compound 13, (1R,3R,5S)-8-methyl-8-aza-bicyclo[3.2.1]octan-3-yl 2-chloro-1-(methylsulfonyl)-1H-indole-3-carboxylate, 2,2,2-trifluoroacetate]",0.93
11,"CN1[C@@H]2COC[C@H]1C[C@@H](OC(=O)c1cn(CC(F)(F)F)c3ccc(F)cc13)C2 [Compound 32, (1R,5S,7S)-9-methyl-3-oxa-9-azabicyclo[3.3.1]nonan-7-yl 5-fluoro-1-(2,2,2-trifluoroethyl)-1H-indole-3-carboxylate, 2,2,2-trifluoroacetate]",1.38
12,"N#CCn1cc(C(=O)OC2C[C@H]3COC[C@@H](C2)N3)c2ccccc21 (stereo partly drawn) [Compound 187, (1R,5S,7S)-3-oxa-9-aza-bicyclo[3.3.1]nonan-7-yl 1-(cyanomethyl)-1H-indole-3-carboxylate]",1.18
13,"CN1[C@@H]2CCC[C@H]1CC(OC(=O)c1nn(S(C)(=O)=O)c3ccccc13)C2 (stereo partly drawn) [Compound 4, (1R,3R,5S)-9-methyl-9-aza-bicyclo[3.3.1]nonan-3-yl 1-(methylsulfonyl)-1H-indazole-3-carboxylate, 2,2,2-trifluoroacetate]",1.4
14,"O=C(NC1CC2COCC(C1)N2)c1cn(CC(F)(F)F)c2ccc(F)cc12 [Compound 6, N-((1R,5S,7S)-3-oxa-9-aza-bicyclo[3.3.1]nonan-7-yl)-5-fluoro-1-(2,2,2-trifluoro-ethyl)-1H-indole-3-carboxamide, 2,2,2-trifluoroacetate]",2.33
15,"O=C(OC1CC2CCC(C1)N2)c1cn(CC(F)(F)F)c2ccccc12 [Compound 14, (1R,3R,5S)-8-azabicyclo[3.2.1] octan-3-yl 1-(2,2,2-trifluoroethyl)-1H-indole-3-carboxylate, 2,2,2-trifluoroacetate]",3.71
16,"CN1[C@@H]2CC[C@H]1CC(OC(=O)c1nn(CC(F)(F)F)c3ccccc13)C2 (stereo partly drawn) [Compound 17, (1R,3R,5S)-8-methyl-8-aza-bicyclo[3.2.1]octan-3-yl 1-(2,2,2-trifluoroethyl)-1H-indazole-3-carboxylate, 2,2,2-trifluoroacetate]",4.39
17,"CN1[C@@H]2COC[C@H]1CC(OC(=O)c1cn(-c3ccsn3)c3ccccc13)C2 (stereo partly drawn) [Compound 182, (1R,5S,7S)-9-methyl-3-oxa-9-azabicyclo[3.3.1]nonan-7-yl 1-(isothiazol-3-yl)-1H-indole-3-carboxylate]",1.62
18,"CS(=O)(=O)n1cc(C(=O)O[C@H]2C[C@H]3COC[C@@H](C2)N3)c2cc(F)ccc21 [Compound 19, (1R,5S,7S)-3-oxa-9-aza-bicyclo[3.3.1]nonan-7-yl 5-fluoro-1-(methylsulfonyl)-1H-indole-3-carboxylate, 2,2,2-trifluoroacetate]",7.72
19,"Cc1c(C(=O)OC2C[C@H]3CC[C@@H](C2)N3C)c2ccccc2n1CCF (stereo partly drawn) [Compound 15, (1R,3R,5S)-8-methyl-8-aza-bicyclo[3.2.1]octan-3-yl 1-(2-fluoroethyl)-2-methyl-1H-indole-3-carboxylate, 2,2,2-trifluoroacetate]",0.53
20,"CN1[C@@H]2COC[C@H]1C[C@@H](OC(=O)c1cn(-c3cncs3)c3ccccc13)C2 [Compound 183, (1R,5S,7S)-9-methyl-3-oxa-9-azabicyclo[3.3.1]nonan-7-yl 1-(thiazol-5-yl)-1H-indole-3-carboxylate]",1.27
21,"O=C(OC1C[C@H]2COC[C@@H](C1)N2)c1cn(-c2ncccn2)c2ccccc12 (stereo partly drawn) [Compound 25, (1R,5S,7S)-3-oxa-9-aza-bicyclo[3.3.1]nonan-7-yl 1-(pyrimidin-2-yl)-1H-indole-3-carboxylate, 2,2,2-trifluoro-acetate]",3.88
22,"O=C(OC1CC2COCC(C1)N2)c1cn(-c2ccsn2)c2ccccc12 [Compound 145, (1R,5S,7s)-3-oxa-9-aza-bicyclo[3.3.1]nonan-7-yl 1-(iso-thiazol-3-yl)-1H-indole-3-carboxylate, 2,2,2-trifluoroacetic acid salt]",2.71
23,"CN1[C@@H]2CC[C@H]1CC(NC(=O)c1cn(S(C)(=O)=O)c3ccc(F)cc13)C2 (stereo partly drawn) [Compound 18, 5-fluoro-N-((1R,3R,5S)-8-methyl-8-azabicyclo[3.2.1]octan-3-yl)-1-(methylsulfonyl)-1H-indole-3-carboxamide, 2,2,2-trifluoroacetate]",4.06
24,"CN1[C@@H]2CC[C@H]1C[C@H](OC(=O)c1c3n(c4ccccc14)CCO3)C2 [Compound 28, (1R,3R,5S)-8-methyl-8-aza-bicyclo[3.2.1]octan-3-yl 2,3-dihydrooxazolo[3.2-a] indole-9-carboxylate, 2,2,2-trifluoroacetate]",1.08
25,"CN1[C@@H]2CCC[C@H]1CC(OC(=O)c1cn(S(C)(=O)=O)c3ccc(F)cc13)C2 (stereo partly drawn) [Compound 34, (1R,3R,5S)-9-methyl-9-aza-bicyclo[3.3.1]nonan-3-yl 5-fluoro-1-(methylsulfonyl)-1H-indole-3-carboxylate, 2,2,2-trifluoroacetate]",0.74
26,"CN1[C@@H]2CC[C@H]1C[C@H](OC(=O)c1cn(CC(F)F)c3ccc(F)cc13)C2 [Compound 27, (1R,3R,5S)-8-methyl-8-aza-bicyclo[3.2.1]octan-3-yl 1-(2,2-difluoroethyl)-5-fluoro-1H-indole-3-carboxylate, 2,2,2-trifluoroacetate]",0.89
27,"O=C(OC1CC2COCC(C1)N2)c1cn(-c2ccns2)c2ccccc12 [Compound 155, (1R,5S,7s)-3-oxa-9-aza-bicyclo[3.3.1]nonan-7-yl 1-(iso-thiazol-5-yl)-1H-indole-3-carboxylate, 2,2,2-trifluoroacetic acid salt]",1.26
28,"O=C(OC1C[C@H]2COC[C@@H](C1)N2CCF)c1cn(CC(F)F)c2ccc(F)cc12 (stereo partly drawn) [Compound 33, (1R,5S,7S)-9-(2-fluoroethyl)-3-oxa-9-azabicyclo[3.3.1] nonan-7-yl 1-(2,2-difluoroethyl)-5-fluoro-1H-indole-3-carboxylate, 2,2,2-trifluoroacetate]",14.4
